Measured values: ChEMBL document CHEMBL5257023, “Identification of leads for antiproliferative activity on MDA-MB-435 human breast cancer cells through pharmacophore and CYP1A1-mediated metabolism” (Eur J Med Chem, 2016)

Assays:
NCI-H226 [1] = test: Anticancer activity against human NCI-H226 cells assessed as cell growth at 1 uM incubated for 48 hrs by SRB assay; format: functional; details: read-out: Activity
CYP1A1 [2] = target: T1, CYP1A1 (Homo sapiens, UniProt P04798); test: Inhibition of recombinant CYP1A1 (unknown origin) assessed as residual enzyme activity using 7-ethoxyresorufin as substrate at 1 uM incubated for 15 mins by resorufin dye based spectrofluorimetry (reference value: 100%); format: ADME; details: recombinant CYP1A1, probe 7-ethoxyresorufin, read-out: Activity
T1 sequence (P04798 whole entry): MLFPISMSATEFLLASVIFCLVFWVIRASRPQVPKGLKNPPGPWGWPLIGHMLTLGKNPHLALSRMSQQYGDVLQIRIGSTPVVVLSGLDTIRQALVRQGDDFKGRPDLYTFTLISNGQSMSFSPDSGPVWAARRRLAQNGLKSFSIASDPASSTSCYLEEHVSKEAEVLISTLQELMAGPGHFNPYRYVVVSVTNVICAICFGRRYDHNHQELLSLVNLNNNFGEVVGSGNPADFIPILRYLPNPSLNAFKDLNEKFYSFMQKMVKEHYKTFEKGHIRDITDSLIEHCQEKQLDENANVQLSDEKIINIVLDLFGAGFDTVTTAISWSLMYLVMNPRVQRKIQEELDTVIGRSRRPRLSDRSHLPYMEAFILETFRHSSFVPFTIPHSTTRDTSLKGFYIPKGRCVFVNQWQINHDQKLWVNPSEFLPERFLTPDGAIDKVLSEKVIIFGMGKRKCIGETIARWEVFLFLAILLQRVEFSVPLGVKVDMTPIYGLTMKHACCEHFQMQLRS

CYP1A1 [3] = target: T1, CYP1A1; test: Inhibition of recombinant CYP1A1 (unknown origin) assessed as residual enzyme activity using 7-ethoxyresorufin as substrate at 0.1 uM incubated for 15 mins by resorufin dye based spectrofluorimetry (reference value: 100%); format: ADME; details: recombinant CYP1A1, probe 7-ethoxyresorufin, read-out: Activity
MDA-MB-435 [4] = test: Anticancer activity against human MDA-MB-435 cells assessed as inhibition of cell growth incubated for 48 hrs by SRB assay; format: functional
MDA-MB-435 [5] = test: Anticancer activity against human MDA-MB-435 cells assessed as cell growth at 100 uM incubated for 48 hrs by SRB assay; format: functional; details: read-out: Activity
MCF7 [6] = test: Anticancer activity against human MCF7 cells assessed as cell growth at 10 uM incubated for 48 hrs by SRB assay; format: functional; details: read-out: Activity
MDA-MB-435 [7] = test: Anticancer activity against human MDA-MB-435 cells assessed as cell growth at 0.1 uM incubated for 48 hrs by SRB assay; format: functional; details: read-out: Activity
MCF7 [8] = test: Anticancer activity against human MCF7 cells assessed as cell growth at 0.1 uM incubated for 48 hrs by SRB assay; format: functional; details: read-out: Activity
NCI-H226 [9] = test: Anticancer activity against human NCI-H226 cells assessed as inhibition of cell growth incubated for 48 hrs by SRB assay; format: functional
CYP1A1 [10] = target: T1, CYP1A1; test: Inhibition of recombinant CYP1A1 (unknown origin) assessed as residual enzyme activity using 7-ethoxyresorufin as substrate at 50 uM incubated for 15 mins by resorufin dye based spectrofluorimetry (reference value: 100%); format: ADME; details: recombinant CYP1A1, probe 7-ethoxyresorufin, read-out: Activity
NCI-H226 [11] = test: Anticancer activity against human NCI-H226 cells assessed as cell growth at 10 uM incubated for 48 hrs by SRB assay; format: functional; details: read-out: Activity
NCI-H226 [12] = test: Anticancer activity against human NCI-H226 cells assessed as cell growth at 100 uM incubated for 48 hrs by SRB assay; format: functional; details: read-out: Activity
MCF7 [13] = test: Anticancer activity against human MCF7 cells assessed as cell growth at 1 uM incubated for 48 hrs by SRB assay; format: functional; details: read-out: Activity
MDA-MB-468 [14] = test: Anticancer activity against human MDA-MB-468 cells assessed as inhibition of cell growth incubated for 48 hrs by SRB assay; format: functional; details: for CC50: read-out: LC50 (the source's name)
Cytochrome P450 1A1 = target: T2, Cytochrome P450 1A1 (Homo sapiens, UniProt P04798); test: Inhibition of recombinant CYP1A1 (unknown origin) assessed as decrease in EROD activity using 7-ethoxyresorufin as substrate upto 100 uM incubated for 15 mins by resorufin dye based spectrofluorimetry; format: ADME; details: recombinant enzyme, 0.25 h
T2 sequence (P04798 whole entry): T1 sequence (P04798 whole entry)

MDA-MB-435 [15] = test: Anticancer activity against human MDA-MB-435 cells assessed as cell growth at 10 uM incubated for 48 hrs by SRB assay; format: functional; details: read-out: Activity
NCI-H226 [16] = test: Anticancer activity against human NCI-H226 cells assessed as cell growth at 0.1 uM incubated for 48 hrs by SRB assay; format: functional; details: read-out: Activity
CYP1A1 [17] = target: T1, CYP1A1; test: Inhibition of recombinant CYP1A1 (unknown origin) assessed as residual enzyme activity using 7-ethoxyresorufin as substrate at 10 uM incubated for 15 mins by resorufin dye based spectrofluorimetry (reference value: 100%); format: ADME; details: recombinant CYP1A1, probe 7-ethoxyresorufin, read-out: Activity
CYP1A1 [18] = target: T1, CYP1A1; test: Inhibition of recombinant CYP1A1 (unknown origin) assessed as residual enzyme activity using 7-ethoxyresorufin as substrate at 0.01 uM incubated for 15 mins by resorufin dye based spectrofluorimetry (reference value: 100%); format: ADME; details: recombinant CYP1A1, probe 7-ethoxyresorufin, read-out: Activity
MCF7 [19] = test: Anticancer activity against human MCF7 cells assessed as cell growth at 100 uM incubated for 48 hrs by SRB assay; format: functional; details: read-out: Activity
CYP1A1 [20] = target: T1, CYP1A1; test: Inhibition of recombinant CYP1A1 (unknown origin) assessed as residual enzyme activity using 7-ethoxyresorufin as substrate at 100 uM incubated for 15 mins by resorufin dye based spectrofluorimetry (reference value: 100%); format: ADME; details: recombinant CYP1A1, probe 7-ethoxyresorufin, read-out: Activity
MDA-MB-435 [21] = test: Anticancer activity against human MDA-MB-435 cells assessed as cell growth at 1 uM incubated for 48 hrs by SRB assay; format: functional; details: read-out: Activity
MCF7 [22] = test: Anticancer activity against human MCF7 cells assessed as inhibition of cell growth incubated for 48 hrs by SRB assay; format: functional; details: for CC50: read-out: LC50 (the source's name)
MDA-MB-468 [23] = test: Anticancer activity against human MDA-MB-468 cells assessed as cell growth at 100 uM incubated for 48 hrs by SRB assay; format: functional; details: read-out: Activity
MDA-MB-468 [24] = test: Anticancer activity against human MDA-MB-468 cells assessed as cell growth at 10 uM incubated for 48 hrs by SRB assay; format: functional; details: read-out: Activity
MDA-MB-468 [25] = test: Anticancer activity against human MDA-MB-468 cells assessed as cell growth at 1 uM incubated for 48 hrs by SRB assay; format: functional; details: read-out: Activity
MDA-MB-468 [26] = test: Anticancer activity against human MDA-MB-468 cells assessed as cell growth at 0.1 uM incubated for 48 hrs by SRB assay; format: functional; details: read-out: Activity

SMILES	growth at 1 µM (NCI-H226 [1])	activity at 0.25 h, 1 µM (CYP1A1 [2])	activity at 0.25 h, 0.1 µM (CYP1A1 [3])	GI50 (MDA-MB-435 [4])	LC50 (MDA-MB-435 [4])	TGI (MDA-MB-435 [4])	growth at 100 µM (MDA-MB-435 [5])	growth at 10 µM (MCF7 [6])	growth at 0.1 µM (MDA-MB-435 [7])	growth at 0.1 µM (MCF7 [8])	GI50 (NCI-H226 [9])	LC50 (concentration killing 50% of cells) (NCI-H226 [9])	TGI (NCI-H226 [9])	activity at 0.25 h, 50 µM (CYP1A1 [10])	growth at 10 µM (NCI-H226 [11])	growth at 100 µM (NCI-H226 [12])	growth at 1 µM (MCF7 [13])	GI50 (MDA-MB-468 [14])	TGI (MDA-MB-468 [14])	CC50 (MDA-MB-468 [14])	other results
NC(=O)c1c(NC(=O)Cc2ccc(F)cc2)sc2c1CCCC2	78.7%	100%	102%	> 100 µM	> 100 µM	> 100 µM	84.9%	79.3%	99.7%	89.7%	65.7 µM	> 100 µM	> 100 µM	98.1%	71.9%	33%	84.8%	91 µM	> 100 µM	> 100 µM	inhibition (INH) (Cytochrome P450 1A1): Not Active; growth at 10 µM (MDA-MB-435 [15]): 98.9%; growth at 0.1 µM (NCI-H226 [16]): 89.8%; activity at 0.25 h, 10 µM (CYP1A1 [17]): 102%; activity at 0.25 h, 0.01 µM (CYP1A1 [18]): 99.8%; growth at 100 µM (MCF7 [19]): 32.2%; activity at 0.25 h, 100 µM (CYP1A1 [20]): 102%; growth at 1 µM (MDA-MB-435 [21]): 99.3%; GI50 (MCF7 [22]): 68.1 µM; TGI (MCF7 [22]): > 100 µM; CC50 (MCF7 [22]): > 100 µM
Cc1ccc(-c2cc(C(N)=O)c3cc(Cl)ccc3n2)o1	76.6%	101%	101%	> 100 µM	> 100 µM	> 100 µM	77.2%	79%	98.4%	98.2%	70.5 µM	> 100 µM	> 100 µM	100%	60.5%	39.9%	92.5%	> 100 µM	> 100 µM	> 100 µM	growth at 100 µM (MDA-MB-468 [23]): 72.5%; growth at 10 µM (MDA-MB-468 [24]): 85.9%; inhibition (INH) (Cytochrome P450 1A1): Not Active; growth at 10 µM (MDA-MB-435 [15]): 87.2%; growth at 0.1 µM (NCI-H226 [16]): 84.8%; growth at 1 µM (MDA-MB-468 [25]): 90.6%; activity at 0.25 h, 10 µM (CYP1A1 [17]): 98.6%; growth at 0.1 µM (MDA-MB-468 [26]): 91.9%; activity at 0.25 h, 0.01 µM (CYP1A1 [18]): 98.5%; growth at 100 µM (MCF7 [19]): 25.5%; activity at 0.25 h, 100 µM (CYP1A1 [20]): 104%; growth at 1 µM (MDA-MB-435 [21]): 95%; GI50 (MCF7 [22]): 63.9 µM; TGI (MCF7 [22]): > 100 µM; CC50 (MCF7 [22]): > 100 µM
Cc1cc(C)n(C(=O)CNc2ccccc2Cl)n1	73.4%	99.9%	100%	> 100 µM	> 100 µM	> 100 µM	85.9%	77.2%	100%	89.6%	> 100 µM	> 100 µM	> 100 µM	104%	71.5%	63.6%	82.9%	89.3 µM	> 100 µM	> 100 µM	growth at 100 µM (MDA-MB-468 [23]): 43.3%; growth at 10 µM (MDA-MB-468 [24]): 94.7%; inhibition (INH) (Cytochrome P450 1A1): Not Active; growth at 10 µM (MDA-MB-435 [15]): 100%; growth at 0.1 µM (NCI-H226 [16]): 82.5%; growth at 1 µM (MDA-MB-468 [25]): 100%; activity at 0.25 h, 10 µM (CYP1A1 [17]): 98.2%; growth at 0.1 µM (MDA-MB-468 [26]): 100%; activity at 0.25 h, 0.01 µM (CYP1A1 [18]): 101%; growth at 100 µM (MCF7 [19]): 26.7%; activity at 0.25 h, 100 µM (CYP1A1 [20]): 99.3%; growth at 1 µM (MDA-MB-435 [21]): 100%; GI50 (MCF7 [22]): 61.1 µM; TGI (MCF7 [22]): > 100 µM; CC50 (MCF7 [22]): > 100 µM
